Measured values reported in patent US10590081B2, “Guanidine compounds and use thereof” (ImmunoMet Therapeutics Inc., priority 2015, dated 2020).
Where a name gives a salt, the structure may show the parent alone. Read-outs that look alike come from different tables or passages of the source.

How the values were obtained:
A549 cells = assay: Test for inhibition of OCR and enhancement of ECAR (XF Analyzer); format: cell-based; details: 24 hrs treatment, oxygen consumption rate
Text: Measurement of Mitochondrial Complex I Inhibition
The electron transfer complex in mitochondria is composed of 5 complexes. The complex I accept electrons from NADH produced from glycolysis and TCA cycle and the electrons move to complex […] and the electron is finally transferred to O2 and water molecule is generated. During the electron transfer, proton gradient is generated and the chemical gradient is a driving source to synthesize ATP at complex V. The mitochondrial inhibition of complex I indirectly assessed by measuring the oxygen consumption rate (OCR) at complex IV. […] The solution outside of cells becomes acidic (lower pH) as lactate is transported to outside of cells. OCR and Extracellular acidification rate (ECAR) are determined by XF Analyzer (Seahorse Biosciences).
A549 cells were purchased from American Type Tissue Culture Collection (CCL-185™) and cultured in RPMI 1640 supplied with 10% fetal bovine serum (FBS) and antibiotic-antimycotic (Lifetech, CA). A549 cells were separated with 0.5% Trypsin-EDTA and 3,000 cells were plated on 1 mg/ml poly-D-lysine (Sigma, P6407) coated XF 96 well […]. A549 cells were allowed to adhere to the wells for 24 hours under the condition of temperature, 37° C. and 5% CO2. The sensor cartridge of XF Analyzer was soaked in 200 μl of Calibrant solution (Seahorse, MA) in a clear 96-well plate at 37° C. for 24 hours. The compounds of the present invention were diluted with RPMI 1640 without FBS, transferred to A549 cells on XF 96 well plate, and incubated further for 23 hours at 37° C. and 5% CO2. After incubation, the compound solution was exchanged with pre-warmed and pH adjusted (pH7.4) XF assay media (Seahorse) supplied with 15 mM D-glucose (Sigma), 15 mM sodium pyruvate (Lifetechnologies, CA) and 4 mM L-glutamine (Lifetechnologies, CA). The compounds of present invention were prepared in XF Assay media and added to the assay plate. The assay plate was equilibrated in XF Analyzer for 1 hour, and the reading were started by sensor cartridge. The cytotoxicity assay was followed using Cyquant (Lifetechnologies, CA) in order to calibrate the inhibition with cytotoxicity of compounds. The concentrations of the compounds were tested at 0, 0.5, 1, 5, 10 and 20 μM and IC50 value was obtained from the inhibited values. That is, from OCR inhibition values at each concentration of the compound, IC50 was calculated according to Prism's dose response curve fitting.
In Table 1, the levels of OCR IC50 are evaluated by the following.
According to the test results of the compounds, the compounds were classified into A, B and C.

SK-MEL-28 cells = assay: Cytotoxicity in low glucose condition (MTT assay); format: cell-based; details: 0.75 mM glucose, 72 hours treatment, read-out: SK-MEL-280.75 mM glucose cell viability (IC50 μM)
Text: Cytotoxicity Assay in Low Glucose Condition
The inhibition of oxidative phosphorylation (OXPHOS) is not cytotoxic to cells in normal glucose condition, because it is postulated that normal cells have compensatory mechanism under energy stress conditions such as low glucose. However OXPHOS inhibitors show cytotoxic effect on cells in the glucose deprived condition (BirsoyK, 2014). The glucose deprived condition is observed in tumor microenvironment potentially due to poor angiogenesis. Therefore the OXPHOS inhibitors may show anti-cancer effect on cancer cells in low glucose condition that may depict tumor microenvironment.
The compounds of the present invention were evaluated their cytotoxicity in SK-MEL-28, melanoma with 0.75 mM glucose supplement. The cytotoxic effect is compared with the cytotoxicity caused by phenformin. The cytotoxicity in low glucose condition is correlated with inhibition of oxygen consumption in mitochondria.
SK-MEL-28 (HTB-72) is a melanoma cell line obtained from ATCC (MA) and cultured in RPMI 1640 media (Lifetechnologies, CA) with supplement of 10% FBS and antibiotic-antimycotic (Lifetechnologies, CA). RPMI 1640 (−Glucose) was used to prepare low glucose media and 0.75 mM glucose was supplied with D-(+)-glucose solution from Sigma. SK-MEL-28 cells were separated from culture plate using 0.5% trypsin-EDTA and 1,250 cells were plated in 96-well plate with low glucose media. After incubation at 37° C. for 24 hour, 5% CO2, the cells were treated with the compounds of present invention in FBS-free media for 72 hours. The cytotoxicity was measured by the MTT (AMRESCO, OH) assay. NADH-dependent cellular oxidoreductase reduces MTT to its insoluble […] with purple color. The enzyme depends on cell number or energy state of cells. 10 μl of 5 mg/ml MTT solution was added to each well of the assay plate and skip the well for blank. The plate was incubated at 37° C. and 5% CO2 for 2 hours. The MTT solution was removed from each well and 100 μl of DMSO was added. The plate was read by VICTOR X3 Multilabel Counter at the wavelength of 550 nm. In Table 2, the levels of IC50 are evaluated by the following criteria.
According to the concentration of compound for killing the half of cell populations (the levels of IC50), the compounds were classified into A, B and C, when the compounds were treated on SK-MEL-28 cells at 0.75 mM glucose.

| Compound | IC50 (A549 cells) | IC50 (SK-MEL-28 cells) | IC50 (A549 cells; Homo sapiens) | IC50 (SK-MEL-28 cells; Homo sapiens, SK-MEL-28, 72 h) |
| --- | --- | --- | --- | --- |
| N—(N-(4-(trifluoromethythio)phenyl)carbamimidoyl)-3,3-difluoropyrrolidine-1-carboximidamide acetate [Example 32] | 2 to 4 µM | < 6 µM | – | – |
| N=C(NC(=N)N1CCC(F)(F)C1)Nc1ccc(I)c(Cl)c1 [Example 31, N—(N-(3-chloro-4-iodophenyl)carbamimidoyl)-3,3-difluoropyrrolidine-1-carboximidamide acetate] | – | – | 2 to 4 µM | 6 to 15 µM |
| N=C(NC(=N)N1CCC(F)(F)CC1)Nc1ccc(I)c(Br)c1 [Example 22, N—(N-(3-bromo-4-iodophenyl)carbamimidoyl)-4,4-difluoropiperidine-1-carboximidamide acetate] | – | – | 2 to 4 µM | < 6 µM |
| N=C(NC(=N)N1CCC(F)(F)C1)Nc1ccc(OC(F)(F)F)c(Cl)c1 [Example 38, N—(N-(3-chloro-4-(trifluoromethoxy)phenyl)carbamimidoyl)-3,3-difluoropyrrolidine-1-carboximidamide acetate] | – | – | 2 to 4 µM | 6 to 15 µM |
| N=C(NC(=N)N1CCC(F)(F)C1)Nc1ccc(OC(F)(F)F)cc1 [Example 25, N—(N-(4-(trifluoromethoxy)phenyl)carbamimidoyl)-3,3-difluoropyrrolidine-1-carboximidamide acetate] | – | – | 2 to 4 µM | < 6 µM |
| N=C(NC(=N)N1CCC(F)(F)C1)Nc1ccc(OC(F)(F)F)c(Br)c1 [Example 39, N—(N-(3-bromo-4-(trifluoromethoxy)phenyl)carbamimidoyl)-3,3-difluoropyrrolidine-1-carboximidamide acetate] | – | – | 2 to 4 µM | – |
| N=C(NC(=N)N1CCC(F)(F)CC1)Nc1ccccc1 [Example 1, N—(N-phenylcarbamimidoyl)-4,4-difluoropiperidine-1-carboximidamide hydrochloride] | – | – | – | > 15 µM |
| N=C(NC(=N)N1CCC(F)(F)CC1)Nc1ccc(Br)c(Br)c1 [Example 26, N—(N-(3,4-dibromophenyl)carbamimidoyl)-4,4-difluoropiperidine-1-carboximidamide acetate] | – | – | 2 to 4 µM | 6 to 15 µM |
| CSc1ccc(NC(=N)NC(=N)N2CCC(F)(F)CC2)cc1 [Example 8, N—(N-(4-(methythio)phenyl)carbamimidoyl)-4,4-difluoropiperidine-1-carboximidamide hydrochloride] | – | – | > 4 µM | 6 to 15 µM |
| N=C(NC(=N)N1CCC(F)(F)C1)Nc1ccc(Oc2ccccc2)cc1 [Example 28, N—(N-(4-phenoxyphenyl)carbamimidoyl)-3,3-difluoropyrrolidine-1-carboximidamide acetate] | – | – | 2 to 4 µM | < 6 µM |
| CC(C)c1ccc(NC(=N)NC(=N)N2CCC(F)(F)CC2)cc1 [Example 10, N—(N-(4-isopropylphenyl)carbamimidoyl)-4,4-difluoropiperidine-1-carboximidamide hydrochloride] | – | – | > 4 µM | 6 to 15 µM |
| N=C(NC(=N)N1CCC(F)(F)CC1)Nc1cccc(Br)c1 [Example 5, N—(N-(3-bromophenyl)carbamimidoyl)-4,4-difluoropiperidine-1-carboximidamide hydrochloride] | – | – | > 4 µM | 6 to 15 µM |
| N=C(NC(=N)N1CCC(F)(F)C1)Nc1ccc(C(F)(F)F)cc1 [Example 30, N—(N-(4-(trifluoromethyl)phenyl)carbamimidoyl)-3,3-difluoropyrrolidine-1-carboximidamide acetate] | – | – | 2 to 4 µM | 6 to 15 µM |
| N=C(NCc1ccc(Br)cc1)NC(=N)N1CCC(F)(F)CC1 [Example 55, N—(N-(4-bromobenzyl)carbamimidoyl)-4,4-difluoropiperidine-1-carboximidamide acetate] | – | – | > 4 µM | – |
| N=C(NC(=N)N1CCC(F)(F)CC1)Nc1cccc(Oc2ccccc2)c1 [Example 13, N—(N-(3-phenoxyphenyl)carbamimidoyl)-4,4-difluoropiperidine-1-carboximidamide hydrochloride] | – | – | 2 to 4 µM | < 6 µM |
| N=C(NC(=N)N1CCC(F)(F)CC1)Nc1ccc(OC(F)(F)F)c(F)c1 [Example 27, N—(N-(3-fluoro-4-(trifluoromethoxy)phenyl)carbamimidoyl)-4,4-fluoropiperidine-1-carboximidamide acetate] | – | – | < 2 µM | < 6 µM |
| N=C(NCc1ccc(Cl)c(Cl)c1)NC(=N)N1CCC(F)(F)CC1 [Example 42, N—(N-(3,4-dichlorobenzyl)carbamimidoyl)-4,4-difluoropiperidine-1-carboximidamide hydrochloride] | – | – | > 4 µM | 6 to 15 µM |
| N=C(NC(=N)N1CCC(F)(F)CC1)Nc1ccc(OC(F)(F)F)cc1 [Example 17, N—(N-(4-(trifluoromethoxy)phenyl)carbamimidoyl)-4,4-difluoropiperidine-1-carboximidamide acetate] | – | – | 2 to 4 µM | – |
| N=C(NC(=N)N1CCC(F)(F)CC1)Nc1ccc(Cl)c(Cl)c1 [Example 3, N—(N-(3,4-dichlorophenyl)carbamimidoyl)-4,4-difluoropiperidine-1-carboximidamide hydrochloride] | – | – | > 4 µM | < 6 µM |
| N=C(NC(=N)N1CCSC1)Nc1ccc(SC(F)(F)F)cc1 [Example 14, N—(N-(4-(trifluoromethythio)phenyl)carbamimidoyl)thiazolidine-3-carboximidamide hydrochloride] | – | – | 2 to 4 µM | < 6 µM |
| N=C(NCc1ccccc1Br)NC(=N)N1CCC(F)(F)CC1 [Example 40, N—(N-(2-bromobenzyl)carbamimidoyl)-4,4-difluoropiperidine-1-carboximidamide hydrochloride] | – | – | > 4 µM | – |
| N=C(NC(=N)N1CCC(F)(F)CC1)Nc1ccc(Oc2ccccc2)cc1 [Example 23, N—(N-(4-phenoxyphenyl)carbamimidoyl)-4,4-difluoropiperidine-1-carboximidamide acetate] | – | – | 2 to 4 µM | < 6 µM |
| N=C(NC(=N)N1CCC(F)(F)CC1)Nc1ccc(I)c(Cl)c1 [Example 18, N—(N-(3-chloro-4-iodophenyl)carbamimidoyl)-4,4-difluoropiperidine-1-carboximidamide acetate] | – | – | 2 to 4 µM | – |
| N=C(NC(=N)N1CCC(F)(F)CC1)Nc1ccc(Br)cc1 [Example 6, N—(N-(4-bromophenyl)carbamimidoyl)-4,4-difluoropiperidine-1-carboximidamide hydrochloride] | – | – | > 4 µM | 6 to 15 µM |
| N=C(NC(=N)N1CCC(F)(F)CC1)Nc1ccccc1Br [Example 4, N—(N-(2-bromophenyl)carbamimidoyl)-4,4-difluoropiperidine-1-carboximidamide hydrochloride] | – | – | – | > 15 µM |
